Results as given in patent US20250019374A1, “PROTEIN TYROSINE PHOSPHATASE INHIBITORS AND METHODS OF USE THEREOF” (Calico Life Sciences LLC, priority 2021, published 2025).
pEC50, pIC50: −log10 of the molar value. Where two headings read alike, the source gives them in different places.

Legend:
[1] = target: His tagged PTPN2 (TC45) protein (Homo sapiens (Human), UniProt P17706); assay: PTPN2 Mobility Shift Assay (MSA); type: biochemical; details: for Dihydrobenzofuran or Indoline x-fold>potency biochemical: x-fold versus corresponding chromane comparator, PTPN2 MSA
Experimental: Example III-1: Mobility Shift Assay (MSA) Used to Determine Potency of PTPN2 Inhibitors
Compound activity was determined using in house His tagged PTPN2 (TC45) protein (SEQ ID NO: 1) in an in vitro enzymatic reaction. The enzymatic assay used to determine activity was a mobility shift assay using a LabChip EZ Reader by Caliper Life Sciences. The enzymatic reaction was carried out in assay buffer (50 mM HEPES pH 7.5, 1 mM EGTA, 10 mM EDTA, 0.01% Tween® 20, and 2 mM DTT). The compounds were dispensed on a white 384 well ProxiPlate™ (PerkinElmer Catalog #6008289) plate using the Labcyte Echo at varying concentrations (12 point, 1:3 dilution). The enzyme (at 0.5 nM) was incubated with compound for 10 minutes at room temperature. Thereafter, the substrate (phosphorylated insulin receptor probe sequence: ((OG488)-(NH—CH2—CH2—O—CH2—CH2—O—CH2—CO)-T-R-D-I—(PY)-E-T-D-Y—Y—R—K—K—NH2) (SEQ ID NO: 2) was added at 2 μM to the plates and incubated for another 10 minutes at room temperature. Finally, a quench solution (water and 4-bromo-3-(2-oxo-2-propoxyethoxy)-5-(3-{[1-(phenylmethanesulfonyl)piperidin-4-yl]amino}phenyl)thiophene-2-carboxylic acid) was added to the plates, which were then run on the EZ Reader (excitation 488 nm, emission 530 nm) to measure % conversion (the amount of phosphorylated substrate which was de-phosphorylated by PTPN2). […] The % inhibition was then used to calculate the IC50 values.

[2] = target: His tagged full-length PTPN1 protein (Homo sapiens (Human), UniProt P18031); assay: PTPN1 Mobility Shift Assay (MSA); type: biochemical; details: enzyme 0.5 nM, substrate 2 μM
Experimental: Example III-2: Mobility Shift Assay (MSA) Used to Determine Potency of PTPN1 Inhibitors
Compound activity was determined using in house His tagged full-length PTPN1 protein (SEQ ID NO: 3) in an in vitro enzymatic reaction. The enzymatic assay used to determine activity is a mobility shift assay using a LabChip EZ Reader by Caliper Life Sciences. The enzymatic reaction was carried out in assay buffer (50 mM HEPES pH 7.5, 1 mM EGTA, 10 mM EDTA, 0.01% Tween® 20, and 2 mM DTT). The compounds were dispensed on a white 384 well ProxiPlate™ (PerkinElmer Cat ^#6008289) plate using a Labcyte Echo® liquid handler at varying concentrations (12 point, 1:3 dilution). The enzyme (at 0.5 nM) was incubated with compound for 10 minutes at room temperature. Thereafter, the substrate (phosphorylated insulin receptor probe sequence: ((OG488)-(NH—CH2—CH2—O—CH2—CH2—O—CH2—CO)-T-R-D-I—(PY)-E-T-D-Y—Y—R—K—K—NH2) (SEQ ID NO: 2) was added at 2 μM to the plates and incubated for another 10 minutes at room temperature. Finally, a quench solution (water and 4-bromo-3-(2-oxo-2-propoxyethoxy)-5-(3-{[1-(phenylmethanesulfonyl)piperidin-4-yl]amino}phenyl)thiophene-2-carboxylic acid) was added to the plates, which were then run on the EZ Reader (excitation 488 nm, emission 530 nm) to measure % conversion (the amount of phosphorylated substrate which was de-phosphorylated by PTPN1). […] The % inhibition was then used to calculate the IC50 values.

[3] = tested on: IFNγ-induced STAT1 phosphorylation (pSTAT1) in B16F10 cells; assay: B16F10 Phospho-STAT1 HTRF proximal pharmacodynamic (PD) assay; type: cell-based, murine; details: for pEC50: B16-F10, B16F10 cells; for Dihydrobenzofuran or Indoline x-fold>potency cellular: x-fold versus corresponding chromane comparator, B16F10 pSTAT1
Experimental: Example III-3: B16F10 (Murine Melanoma Cells) Phospho-STAT1 HTRF Proximal Pharmacodynamic (PD) Assay
B16F10 cells were grown and maintained in high glucose DMEM (Gibco, Catalog^#11965-092, Dun Laoghaire Co Dublin) supplemented with 10% fetal bovine serum (Gibco, Catalog^#10082-139, Dun Laoghaire Co Dublin). The cells were pelleted and resuspended in high glucose DMEM without phenol red (Gibco, Catalog^#11054-020, Dun Laoghaire Co Dublin), supplemented with 10% fetal bovine serum and plated in a 384 well Corning plate (product^#3765, Corning, NY) at 11,000 cells per well in a volume of 20 μL. The cells were dosed with the compounds of interest using an Echo Liquid Handler (Beckman Coulter, Brea, CA) at 50 μM top dose with 3-fold dilutions down to 0.002679 μM for a 10-point dose response. The plate was incubated for 3 hours at 37° C. and subsequently treated with recombinant mouse IFNγ (R&D Systems, Catalog^#485-MI, Minneapolis, MN; 100 nM final concentration) for 10 minutes at 37° C. to induce STAT1 phosphorylation followed by 3.3 μM staurosporine treatment for 1 hour at 37° C. to terminate phosphorylation. Media was then aspirated and 20 μL of 1× lysis buffer/blocking reagent (Cisbio Phospho-STAT1 kit, part^# 63ADK026PEH, Bedford, MA) was added. The plate was placed on a plate shaker for 30 minutes at room temperature, sealed, and stored at −80° C. until needed. To thaw, the plate was placed on shaker at room temperature until completely thawed while the antibody master mix was made (1:40 Phospho-STAT1 Eu Cryptate antibody, 1:40 Phospho-STAT d2 antibody, with the detection buffer; Cisbio Phospho-STAT1 kit, part^#63ADK026PEH, Bedford, MA). The antibody master mix was then dispensed at 4 μL per well into a 384 ProxiPlate Plus (PerkinElmer, part^#6008289, Waltham, MA) and 16 μL of lysate was added from the Corning plate to the Proxiplate using a VIAFLO 384 (INTEGRA). The plate was incubated for 3 hours at room temperature and read on an EnVision® (Perkin Elmer) plate reader with laser excitation at 335 nm and emission at 665 nm. Dotmatics Studies (Bishop's Stortford, UK) was utilized to generate all dose-response curves and calculate EC50s and are shown in Table 2.

[4] = Table 3, dihydrobenzofuran or indoline compound (X = O or NH)
[5] = 3 hours compound, 100 nM mouse IFNγ 10 minutes, read-out: B16F10 IFNγ Induced pSTAT1 EC50
[6] = Mus musculus, Table 3, dihydrobenzofuran or indoline compound (X = O or NH), read-out: pSTAT1 EC50

Chain of His tagged full-length PTPN1 protein (P18031 whole entry): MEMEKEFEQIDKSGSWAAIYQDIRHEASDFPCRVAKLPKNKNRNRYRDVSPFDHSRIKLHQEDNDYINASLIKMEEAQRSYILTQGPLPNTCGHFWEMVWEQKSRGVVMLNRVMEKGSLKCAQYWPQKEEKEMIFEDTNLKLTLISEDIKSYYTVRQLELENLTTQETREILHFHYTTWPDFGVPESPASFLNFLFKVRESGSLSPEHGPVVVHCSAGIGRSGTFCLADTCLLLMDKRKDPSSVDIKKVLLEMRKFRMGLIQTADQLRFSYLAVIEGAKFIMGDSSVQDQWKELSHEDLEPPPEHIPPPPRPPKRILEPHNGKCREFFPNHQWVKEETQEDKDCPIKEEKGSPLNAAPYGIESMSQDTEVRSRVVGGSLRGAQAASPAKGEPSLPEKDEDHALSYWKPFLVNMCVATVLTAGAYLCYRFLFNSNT
Chain of His tagged PTPN2 (TC45) protein (P17706 other isoform, or with tags, fused parts or gaps): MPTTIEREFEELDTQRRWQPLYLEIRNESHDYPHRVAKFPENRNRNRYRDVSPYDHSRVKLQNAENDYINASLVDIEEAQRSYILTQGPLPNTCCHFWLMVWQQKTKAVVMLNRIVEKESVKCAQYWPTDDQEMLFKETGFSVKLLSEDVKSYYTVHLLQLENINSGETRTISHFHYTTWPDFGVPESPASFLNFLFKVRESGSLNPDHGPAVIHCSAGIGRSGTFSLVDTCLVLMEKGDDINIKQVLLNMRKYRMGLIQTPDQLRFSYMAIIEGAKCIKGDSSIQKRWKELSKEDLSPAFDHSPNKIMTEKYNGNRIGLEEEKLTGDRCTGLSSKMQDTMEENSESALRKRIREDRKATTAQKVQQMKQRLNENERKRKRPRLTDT

Row | SMILES | pIC50 [1, 4] | pIC50 ([1]; enzyme 0.5 nM, substrate 2 μM) | Dihydrobenzofuran or Indoline x-fold>potency biochemical [1] | pIC50 [2] | pEC50 [3, 5] | pEC50 [3, 6] | Dihydrobenzofuran or Indoline x-fold>potency cellular [3]
1 | O=C1CN(c2c(O)cc3c(c2F)C[C@H](CNCCC2CCOC2)O3)S(=O)(=O)N1 (stereo partly drawn) [Compound 108, 5-[(2R)-4-fluoro-6-hydroxy-2-({[2-(oxolan-3-yl)ethyl]amino}methyl)-2,3-dihydro-1-benzofuran-5-yl]-1λ^6,2,5-thiadiazolidine-1,1,3-trione] | 7.80 | 7.00 to 8.00 | 2.3 | 7.00 to 8.00 | 5.72 | 5.72 | 11.8
2 | CCCNC[C@H]1Cc2c(cc(O)c(N3CC(=O)NS3(=O)=O)c2F)O1 [Compound 109, 5-{(2R)-4-fluoro-6-hydroxy-2-[(propylamino)methyl]-2,3-dihydro-1-benzofuran-5-yl}-1λ^6,2,5-thiadiazolidine-1,1,3-trione] |  | 7.00 to 8.00 |  | 7.00 to 8.00 | 5.87 |  | 
3 | CCCN(CCC)C[C@H]1Cc2c(cc(O)c(N3CC(=O)NS3(=O)=O)c2F)O1 [Compound 110, 5-{(2R)-2-[(dipropylamino)methyl]-4-fluoro-6-hydroxy-2,3-dihydro-1-benzofuran-5-yl}-1λ^6,2,5-thiadiazolidine-1,1,3-trione] |  | 7.00 to 8.00 |  | 7.00 to 8.00 | 4.74 |  | 
4 | CCCCNC[C@H]1Cc2c(cc(O)c(N3CC(=O)NS3(=O)=O)c2F)O1 [Compound 111, 5-{(2R)-2-[(butylamino)methyl]-4-fluoro-6-hydroxy-2,3-dihydro-1-benzofuran-5-yl}-1λ^6,2,5-thiadiazolidine-1,1,3-trione] |  | 7.00 to 8.00 |  | 7.00 to 8.00 | 5.95 |  | 
5 | CCNC[C@H]1Cc2c(cc(O)c(N3CC(=O)NS3(=O)=O)c2F)O1 [Compound 112, 5-{(2R)-2-[(ethylamino)methyl]-4-fluoro-6-hydroxy-2,3-dihydro-1-benzofuran-5-yl}-1λ^6,2,5-thiadiazolidine-1,1,3-trione] |  | 7.00 to 8.00 |  | 7.00 to 8.00 | 6.11 |  | 
6 | O=C1CN(c2c(O)cc3c(c2F)C[C@H](CNCC2CCCC2)O3)S(=O)(=O)N1 [Compound 113, 5-[(2R)-2-{[(cyclopentylmethyl)amino]methyl}-4-fluoro-6-hydroxy-2,3-dihydro-1-benzofuran-5-yl]-1λ^6,2,5-thiadiazolidine-1,1,3-trione] |  | 7.00 to 8.00 |  | 7.00 to 8.00 | 6.11 |  | 
7 | O=C1CN(c2c(O)cc3c(c2F)C[C@H](CNCC2CCOCC2)O3)S(=O)(=O)N1 [Compound 114, 5-[(2R)-4-fluoro-6-hydroxy-2-({[(oxan-4-yl)methyl]amino}methyl)-2,3-dihydro-1-benzofuran-5-yl]-1λ^6,2,5-thiadiazolidine-1,1,3-trione] |  | 7.00 to 8.00 |  | 7.00 to 8.00 | 5.84 |  | 
8 | CC(C)CCNC[C@H]1Cc2c(cc(O)c(N3CC(=O)NS3(=O)=O)c2F)O1 [Compound 115, 5-[(2R)-4-fluoro-6-hydroxy-2-{[(3-methylbutyl)amino]methyl}-2,3-dihydro-1-benzofuran-5-yl]-1λ^6,2,5-thiadiazolidine-1,1,3-trione] | 7.77 | 7.00 to 8.00 | 0.9 | 7.00 to 8.00 | 6.08 | 6.08 | 8.3
9 | CCC(C)CNC[C@H]1Cc2c(cc(O)c(N3CC(=O)NS3(=O)=O)c2F)O1 (stereo partly drawn) [Compound 116, 5-[(2R)-4-fluoro-6-hydroxy-2-{[(2-methylbutyl)amino]methyl}-2,3-dihydro-1-benzofuran-5-yl]-1λ^6,2,5-thiadiazolidine-1,1,3-trione] |  | 7.00 to 8.00 |  | 7.00 to 8.00 | 6.13 |  | 
10 | O=C1CN(c2c(O)cc3c(c2F)C[C@H](CNCC2CC2)O3)S(=O)(=O)N1 [Compound 117, 5-[(2R)-2-{[(cyclopropylmethyl)amino]methyl}-4-fluoro-6-hydroxy-2,3-dihydro-1-benzofuran-5-yl]-1λ^6,2,5-thiadiazolidine-1,1,3-trione] |  | 7.00 to 8.00 |  | 7.00 to 8.00 | 6.09 |  | 
11 | O=C1CN(c2c(O)cc3c(c2F)C[C@H](CN(CC2CC2)CC2CC2)O3)S(=O)(=O)N1 [Compound 118, 5-[(2R)-2-{[bis(cyclopropylmethyl)amino]methyl}-4-fluoro-6-hydroxy-2,3-dihydro-1-benzofuran-5-yl]-1λ^6,2,5-thiadiazolidine-1,1,3-trione] |  | 7.00 to 8.00 |  | 7.00 to 8.00 | 4.70 |  | 
12 | O=C1CN(c2c(O)cc3c(c2F)C[C@H](CNCC2CCC2)O3)S(=O)(=O)N1 [Compound 119, 5-[(2R)-2-{[(cyclobutylmethyl)amino]methyl}-4-fluoro-6-hydroxy-2,3-dihydro-1-benzofuran-5-yl]-1λ^6,2,5-thiadiazolidine-1,1,3-trione] |  | 7.00 to 8.00 |  | 7.00 to 8.00 | 6.07 |  | 
13 | O=C1CN(c2c(O)cc3c(c2F)C[C@H](CNCC2COC2)O3)S(=O)(=O)N1 [Compound 120, 5-[(2R)-4-fluoro-6-hydroxy-2-({[(oxetan-3-yl)methyl]amino}methyl)-2,3-dihydro-1-benzofuran-5-yl]-1λ^6,2,5-thiadiazolidine-1,1,3-trione] |  | 7.00 to 8.00 |  | 7.00 to 8.00 | 5.79 |  | 
14 | O=C1CN(c2c(O)cc3c(c2F)C[C@H](CNCCC2(CO)CCC2)O3)S(=O)(=O)N1 [Compound 121, 5-{(2R)-4-fluoro-6-hydroxy-2-[({2-[1-(hydroxymethyl)cyclobutyl]ethyl}amino)methyl]-2,3-dihydro-1-benzofuran-5-yl}-1λ^6,2,5-thiadiazolidine-1,1,3-trione] |  | 7.00 to 8.00 |  | 7.00 to 8.00 | 5.76 |  | 
15 | O=C1CN(c2c(O)cc3c(c2F)C[C@H](CNCCC2(CO)CCCC2)O3)S(=O)(=O)N1 [Compound 122, 5-{(2R)-4-fluoro-6-hydroxy-2-[({2-[1-(hydroxymethyl)cyclopentyl]ethyl}amino)methyl]-2,3-dihydro-1-benzofuran-5-yl}-1λ^6,2,5-thiadiazolidine-1,1,3-trione] |  | 7.00 to 8.00 |  | 7.00 to 8.00 | 5.70 |  | 
